Laboratory results as given in ChEMBL document CHEMBL4321865, “Discovery of Novel Inhibitors of LpxC Displaying Potent in Vitro Activity against Gram-Negative Bacteria” (J Med Chem, 2020).
≈ marks a conversion by molar mass, not a printed value.

Key:
Pseudomonas aeruginosa [1] = test: Antimicrobial activity against Pseudomonas aeruginosa PA2616 harboring delta mexAB-OprM mutant by broth microdilution method; format: functional
[2] = test system: T1, UDP-3-O-acyl-N-acetylglucosamine deacetylase (Escherichia coli K-12), P0A725 [C125S]
T1 sequence (whole entry): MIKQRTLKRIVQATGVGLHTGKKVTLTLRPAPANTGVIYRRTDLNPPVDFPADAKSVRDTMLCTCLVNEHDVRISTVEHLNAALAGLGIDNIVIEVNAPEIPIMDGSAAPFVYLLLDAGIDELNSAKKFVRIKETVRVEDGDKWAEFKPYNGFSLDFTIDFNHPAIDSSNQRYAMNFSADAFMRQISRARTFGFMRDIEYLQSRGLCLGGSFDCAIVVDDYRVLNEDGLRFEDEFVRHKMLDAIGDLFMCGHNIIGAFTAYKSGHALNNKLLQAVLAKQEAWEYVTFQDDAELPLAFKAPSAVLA

[3] = test system: T2, UDP-3-O-acyl-N-acetylglucosamine deacetylase (Pseudomonas aeruginosa (strain ATCC 15692 / PAO1 / 1C / PRS 101 / LMG12228)), P47205 [C40S]
T2 sequence (whole entry): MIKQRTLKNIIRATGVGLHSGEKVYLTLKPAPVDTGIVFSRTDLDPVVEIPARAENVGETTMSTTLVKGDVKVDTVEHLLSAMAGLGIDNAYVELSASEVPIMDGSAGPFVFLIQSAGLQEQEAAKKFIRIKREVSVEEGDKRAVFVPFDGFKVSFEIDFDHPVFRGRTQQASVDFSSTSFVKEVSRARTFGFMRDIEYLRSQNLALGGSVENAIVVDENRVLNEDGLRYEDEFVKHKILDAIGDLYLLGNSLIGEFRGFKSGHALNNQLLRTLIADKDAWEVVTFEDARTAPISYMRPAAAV

Escherichia coli [4] = test: microbe, parasite or virus in culture; details: ATCC 25922
Description: Antibacterial activity against wild-type Escherichia coli ATCC 25922 by broth microdilution method

Klebsiella pneumoniae = test: microbe, parasite or virus in culture; details: T 6474
Description: Antibacterial activity against multi-drug resistant Klebsiella pneumoniae T 6474 by broth microdilution method

Pseudomonas aeruginosa [5] = test: microbe, parasite or virus in culture; details: ATCC 27853
Description: Antimicrobial activity against Pseudomonas aeruginosa ATCC 27853 by broth microdilution method

Pseudomonas aeruginosa [6] = test: microbe, parasite or virus in culture; details: PAO1
Description: Antimicrobial activity against wild-type Pseudomonas aeruginosa PAO1 by broth microdilution method

physchem [7] = details: n-octanol/phosphate buffered saline, pH 7.4
Description: n-Octanol/phosphate buffered saline partition coefficient, log D of the compound at pH 7.4 by LC-UV method

physchem [8] = details: DMSO, pH 7
Description: Solubility of the compound in DMSO at pH 7 incubated for 24 hrs by LC-UV method

physchem [9] = details: DMSO, pH 9
Description: Solubility of the compound in DMSO at pH 9 incubated for 24 hrs by LC-UV method

Escherichia coli [10] = test: Antibacterial activity against Escherichia coli infected in cyclophosphamide-induced NMRI/ICR CD-1 mouse model of neutropenic thigh infection assessed as reduction in thigh bacterial load at 50 mg/kg, sc measured after 22 hrs relative to control; format: functional
Escherichia coli [11] = test: Antibacterial activity against Escherichia coli infected in cyclophosphamide-induced NMRI/ICR CD-1 mouse model of neutropenic thigh infection assessed as reduction in thigh bacterial load at 150 mg/kg, sc measured after 22 hrs relative to control; format: functional
[12] = Apparent clearance in NMRI/ICR CD-1 mouse at 50 mg/kg, sc by LC-MS/MS analysis; format: ADME, organism-based; details: in vivo
Mus musculus [13] = test: Apparent unbound clearance in NMRI/ICR CD-1 mouse at 50 mg/kg, sc by LC-MS/MS analysis; format: ADME, organism-based; details: in vivo
[14] = Cmax in NMRI/ICR CD-1 mouse at 50 mg/kg, sc by LC-MS/MS analysis; format: ADME, organism-based; design: dose 50 mg/kg, route subcutaneous; details: in vivo
[15] = Tmax in NMRI/ICR CD-1 mouse at 50 mg/kg, sc by LC-MS/MS analysis; format: ADME, organism-based; details: in vivo
[16] = mouse, plasma, 1 µM
Description: Protein binding in mouse plasma assessed as fraction unbound at 1 uM by equilibrium dialysis method

[17] = mouse, in vivo, sc, 50 mg/kg
in vivo = details: NMRI/ICR CD-1, mouse, sc, 50 mg/kg
physchem [18] = details: DMSO, pH 4
Description: Solubility of the compound in DMSO at pH 4 incubated for 24 hrs by LC-UV method

[19] = AUC (0 to 24 hrs) in NMRI/ICR CD-1 mouse at 150 mg/kg, sc by LC-MS/MS analysis; format: ADME, organism-based; design: dose 150 mg/kg, time < 24 hr, route subcutaneous; details: in vivo
[20] = Free AUC (0 to 24 hrs) in NMRI/ICR CD-1 mouse at 150 mg/kg, sc by LC-MS/MS analysis; format: ADME, organism-based; details: in vivo
[21] = Apparent clearance in NMRI/ICR CD-1 mouse at 150 mg/kg, sc by LC-MS/MS analysis; format: ADME, organism-based; details: in vivo
Mus musculus [22] = test: Apparent unbound clearance in NMRI/ICR CD-1 mouse at 150 mg/kg, sc by LC-MS/MS analysis; format: ADME, organism-based; details: in vivo
[23] = Tmax in NMRI/ICR CD-1 mouse at 150 mg/kg, sc by LC-MS/MS analysis; format: ADME, organism-based; details: in vivo

| Compound | MIC (Pseudomonas aeruginosa [1]) [µg/mL] | ΔTm [2] [°C] | ΔTm [3] [°C] | MIC (Escherichia coli [4]) [µg/mL] | MIC (Klebsiella pneumoniae) [µg/mL] | MIC (Pseudomonas aeruginosa [5]) [µg/mL] | MIC (Pseudomonas aeruginosa [6]) [µg/mL] | logD (physchem [7]) | solubility at 24 h (physchem [8]) [µg/mL] | solubility at 24 h (physchem [9]) [µg/mL] | solubility at 24 h (physchem [18]) [µg/mL] | other results |
| --- | --- | --- | --- | --- | --- | --- | --- | --- | --- | --- | --- | --- |
| COc1ccc(-c2cn3c(n2)CN(CC[C@](C)(C(=O)NO)S(C)(=O)=O)C3=O)c(F)c1 | 8 (≈ 18.2 µM) | 6 | 6.9 | 4 (≈ 9.08 µM) | 16 (≈ 36.3 µM) | > 32 | > 32 |  |  |  |  |  |
| COc1ccc(-c2ccc3c(c2)oc(=O)n3CC[C@](C)(C(=O)NO)S(C)(=O)=O)c(F)c1 | ≤ 0.06 | 8.2 | 11 | 0.5 (≈ 1.11 µM) | 4 (≈ 8.84 µM) | 8 (≈ 17.7 µM) | 4 (≈ 8.84 µM) | 2.2 | 7 (≈ 15.5 µM) | 66 (≈ 146 µM) |  |  |
| C[C@@](CCN1Cc2cc(C#CC#C[C@H]3C[C@@H]3CO)cn2C1=O)(C(=O)NO)S(C)(=O)=O |  | 11.2 | 13.2 | 0.12 (≈ 0.277 µM) | 0.25 (≈ 0.577 µM) | 0.25 (≈ 0.577 µM) | 0.5 (≈ 1.15 µM) |  |  |  | 600 (≈ 1380 µM) | fold change (FC) (Escherichia coli [10]): 1.8; fold change (FC) (Escherichia coli [11]): 0.8; CL/F [12]: 20.2 mL/min/kg; CLu/F (Mus musculus [13]): 2300 mL/min/kg; Cmax [14]: 22600 ng/mL; Tmax [15]: 30 min; Fu [16]: 0.009%; fAUC [17]: 370 ng·h/mL; AUC(0-t) at 24 h (in vivo): 41000 ng·h/mL |
| C[C@@](CCN1Cc2cc(C#CC#CC3(N)CC3)cn2C1=O)(C(=O)NO)S(C)(=O)=O.Cl |  | 10 | 11.6 | 0.25 | 0.25 | 0.5 | 0.5 |  | 418 | 536 | 571 | fold change (FC) (Escherichia coli [10]): 2.8; fold change (FC) (Escherichia coli [11]): 1.8; Cmax [14]: 8600 ng/mL; AUC(0-t) at 24 h [19]: 14900 ng·h/mL; fAUC [20]: 1160 ng·h/mL; CL/F [21]: 55.9 mL/min/kg; CLu/F (Mus musculus [22]): 716 mL/min/kg; Tmax [23]: 30 min; Fu [16]: 0.078% |
| COc1ccc(-c2cc3n(c2)C(=O)N(CC[C@](C)(C(=O)NO)S(C)(=O)=O)C3)c(F)c1 | 0.12 (≈ 0.273 µM) | 8.1 | 11.5 | 0.12 (≈ 0.273 µM) | 0.25 (≈ 0.569 µM) | 1 (≈ 2.28 µM) | 0.5 (≈ 1.14 µM) | 1.8 | 37 (≈ 84.2 µM) | 302 (≈ 687 µM) |  |  |
| COc1ccc(-c2cc3c(s2)C(=O)N(CC[C@](C)(C(=O)NO)S(C)(=O)=O)C3)c(F)c1 | 0.12 (≈ 0.263 µM) | 9.3 | 12.4 | ≤ 0.06 | 0.25 (≈ 0.548 µM) | 1 (≈ 2.19 µM) | 0.5 (≈ 1.1 µM) | 2.1 | 5 (≈ 11 µM) | 36 (≈ 78.9 µM) |  |  |
| COc1ccc(-c2cn(CC[C@@](C)(C(=O)NO)S(C)(=O)=O)c(=O)o2)c(F)c1 | 16 (≈ 39.8 µM) | 1.9 | 3.7 | > 32 | > 32 | > 32 | > 32 |  |  |  |  |  |
| COc1ccc(-c2cnc3c(c2)CN(CCC(C)(C(=O)NO)S(C)(=O)=O)C3=O)c(F)c1 (racemic) | 16 (≈ 35.4 µM) | 5.6 | 7 | 32 (≈ 70.9 µM) | > 32 | 32 (≈ 70.9 µM) | > 32 |  |  |  |  |  |
| COc1ccc(-c2ccc3c(c2)CN(CC[C@](C)(C(=O)NO)S(C)(=O)=O)C3=O)c(F)c1 | 0.25 (≈ 0.555 µM) | 9.1 | 11 | ≤ 0.06 | ≤ 0.06 | 2 (≈ 4.44 µM) | 2 (≈ 4.44 µM) | 1.9 | 5 (≈ 11.1 µM) | 22 (≈ 48.8 µM) |  |  |
| C[C@@](CCN1Cc2cc(C#Cc3ccc([C@H](O)CO)cc3)cn2C1=O)(C(=O)NO)S(C)(=O)=O |  | 11.1 | 12.7 | 0.5 (≈ 1.05 µM) | 1 (≈ 2.1 µM) | 1 (≈ 2.1 µM) | 1 (≈ 2.1 µM) | 0.5 | 605 (≈ 1270 µM) | 660 (≈ 1390 µM) | 167 (≈ 351 µM) | fold change (FC) (Escherichia coli [10]): 2.4; fold change (FC) (Escherichia coli [11]): 0.4; CL/F [12]: 10.8 mL/min/kg; CLu/F (Mus musculus [13]): 680 mL/min/kg; Cmax [14]: 41300 ng/mL; Tmax [15]: 30 min; Fu [16]: 0.016%; fAUC [17]: 1230 ng·h/mL; AUC(0-t) at 24 h (in vivo): 76500 ng·h/mL |
| COc1ccc(-c2cn(CC[C@](C)(C(=O)NO)S(C)(=O)=O)c(=O)o2)c(F)c1 | 1 (≈ 2.49 µM) | 5.2 | 9.9 | 8 (≈ 19.9 µM) | 16 (≈ 39.8 µM) | 8 (≈ 19.9 µM) | 8 (≈ 19.9 µM) |  |  |  |  |  |
| C[C@@](CCN1Cc2cc(C#Cc3ccc([C@@H]4C[C@H]4CO)cc3)cn2C1=O)(C(=O)NO)S(C)(=O)=O |  | 12.1 | 13.4 | ≤ 0.06 | ≤ 0.06 | 0.5 (≈ 1.03 µM) | 1 (≈ 2.06 µM) | 2 | 112 (≈ 231 µM) | 568 (≈ 1170 µM) | 73 (≈ 150 µM) |  |
| C[C@@](CCN1Cc2cc(C#CC#CC3(O)COC3)sc2C1=O)(C(=O)NO)S(C)(=O)=O |  | 7.4 | 12.2 | 2 (≈ 4.42 µM) | 4 (≈ 8.84 µM) | 4 (≈ 8.84 µM) | 4 (≈ 8.84 µM) | 0.5 | > 760 | > 760 | > 760 |  |
